Measurements as given in US20050250837A1, “Use of C-Raf inhibitors for the treatment of neurodegenerative diseases” (priority 2002, published 2005).

Assays:
[1] = tested on: cerebellar granule neurons; test: MPP+-induced cell death in cerebellar granule neurons; assay type: cell-based, rat; conditions: HK + 200 uM MPP+, different concentrations of GW5074, 24 hours
c-src = c-src (Homo sapiens, UniProt P12931); conditions: Lackey et al., 2000; cited from earlier work
GSK3β = GSK3β phosphorylation in neuronal cultures, Western blot; assay type: cell-based, rat; conditions: LK + 1 uM GW5074
C-Raf = target: T1, C-Raf (Rattus norvegicus, UniProt P11345); test: C-Raf Ser259 phosphorylation in neuronal cultures, Western blot; assay type: cell-based; conditions: LK + 1 uM GW5074, 0-30 min
T1 construct: Activities of endogenous C-Raf and B-Raf activity was assayed by measuring the ability of kinase immunoprecipitated from neuronal lysates; endogenous in cells; host or cells: primary rat cerebellar granule neurons
T1 sequence (P11345 whole entry): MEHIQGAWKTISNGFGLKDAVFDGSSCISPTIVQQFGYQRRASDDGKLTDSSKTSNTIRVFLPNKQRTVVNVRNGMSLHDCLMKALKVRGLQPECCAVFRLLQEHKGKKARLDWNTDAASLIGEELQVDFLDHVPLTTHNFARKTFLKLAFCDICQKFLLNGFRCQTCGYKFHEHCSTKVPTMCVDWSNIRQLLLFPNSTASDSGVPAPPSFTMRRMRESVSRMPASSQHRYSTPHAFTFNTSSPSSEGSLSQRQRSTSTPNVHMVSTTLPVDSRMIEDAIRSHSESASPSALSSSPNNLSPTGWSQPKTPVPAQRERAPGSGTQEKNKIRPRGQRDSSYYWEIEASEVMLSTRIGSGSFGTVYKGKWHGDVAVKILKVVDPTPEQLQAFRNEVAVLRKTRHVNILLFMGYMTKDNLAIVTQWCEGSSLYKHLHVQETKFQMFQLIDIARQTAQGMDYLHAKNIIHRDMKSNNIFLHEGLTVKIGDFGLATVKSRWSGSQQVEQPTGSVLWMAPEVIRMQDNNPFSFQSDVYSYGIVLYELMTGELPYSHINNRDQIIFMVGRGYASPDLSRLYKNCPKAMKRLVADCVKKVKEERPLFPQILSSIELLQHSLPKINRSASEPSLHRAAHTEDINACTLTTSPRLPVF
Description: The cultures were lysed and the lysate subjected to Western blot analysis using a phopho-Ser259-specific antibody.
For whole-cell lysates, the culture medium was discarded, the neurons washed twice with ice-cold phosphate-buffered saline (PBS), and lysed in lysis buffer (1% Triton, 20 mM Tris-HCl (pH 7.5), 150 mM NaCl, 1 mM Na2EDTA, 1 mM EGTA, 2.5 mM sodium pyrophosphate, 1 mM beta-glycerophosphate, 1 mM Na3VO4, 1 μg/ml leupeptin and 1× protease inhibitor mixture). Protein concentrations were measured using a Bradford protein assay kit (Bio-Rad), and equivalent amounts of protein were mixed with 6×SDS-PAGE sample buffer. Following heating at 95° C. for 5 min, proteins were subjected to SDS-polyacrylamide gel electrophoresis and transferred electrophoretically to polyvinylidene difluoride membrane (PVDF; Bio Rad). After staining with Ponceau S to verify uniformity of protein loads/transfer, the membranes were analyzed for immunoreactivity. Incubation with primary antibodies was performed overnight at 4° C. and with secondary antibodies for 1 h at room temperature. Immunoreactivity was developed by enhanced chemiluminescence (ECL; Amersham) and visualized by autoradiography. All antibodies were from Cell Signaling.

mice = test: 3-Nitropropionic acid (3-NP) model of Huntington's disease, striatal lesions; assay type: in vivo; conditions: GW5074 5 mg/kg body weight intraperitoneally
Source text: 3-Nitropropionic acid (3-NP) administration in rodents and nonhuman primates has served as a useful experimental model for HD (reviewed in Brouillet et al., 1999). 3-NP is an irreversible inhibitor of succinate dehydrogenase (SDH; Complex II), which causes prolonged mitochondrial energy impairment and replicates most of the clinical and pathophysiological hallmarks of HD including selective striatal degeneration, spontaneous choreiform and dystonic movements (Brouillet et al., 1999).
Mice were purchased from Charles River (Wilmington, Mass.). 3-NP was dissolved in water and the solution brought to pH 7.4 with sodium hydroxide. 3NP was administered to 8-week old B6CBA male mice in ten intraperitoneal injections (50 mg/kg twice a day for 5 days). […] Control animals received saline injections. On the day following the 5 days of injection, mice were deeply anesthetized, intracardially perfused, brains removed, post fixed in 4% paraformaldehyde and cryoprotected. Coronal sections were cut on a cryostat at 50 micron and stained for Nissl substance (cresyl violet).

[2] = tested on: cerebellar granule neurons; test: LK-induced apoptosis of cultured cerebellar granule neurons (MTT viability); assay type: cell-based, rat
Description: Cultured cerebellar granule neurons undergo apoptosis when switched from HK to medium containing LK (D'Mello et al., 1993). […] Neuronal cultures were switched to medium containing LK, or LK medium containing different doses of GW5074. Cell viability was quantified 24 hours later. Control cultures received HK medium. […] Protection against LK-induced apoptosis is maximal at 1 uM.
Granule neuron cultures were obtained from dissociated cerebella of 7-8 day old rats as described previously (D'Mello et al., 1993). Cells were plated in Basal Eagle's Medium with Earles salts (BME) supplemented with 10% fetal bovine serum (FBS), 25 mM KCl, 2 mM glutamine (Gibco-BRL), and 100 ug/ml gentamycin on dishes coated with poly-L-lys ine in 24-well dishes at a density 1.0×10^6 cells/well, 1.2×10^7 cells/60 mm dish, or 3.0×10^7 cells/100 mm dish. Cytosine arabinofuranoside (10 uM) was added to the culture medium 18-22 hours after plating to prevent replication of non-neuronal cells. Cultures were maintained for 6-7 days prior to experimental treatments. For this, the cells were rinsed once and then maintained in low K^+ medium (serum-free BME medium, 5 mM KCl) or high K^+ medium (serum-free BME medium, supplemented with 20 mM KCl). When used to treat cultures, GW5074 was added at the time when cells were switched to LK medium. Treatment of cultures with pharmacological inhibitors was initiated 15 min prior to rinsing and was maintained through the subsequent incubation in LK or HK medium unless specified otherwise. For MPP+ and methylmercury treatments, 7-8 day old cultures were switched to HK medium containing 200 uM MPP+ or 0.5 uM methylmercury. Viability was assayed 24 hours later.
Neuronal survival was quantified by the MTT assay as previously described (Koulich et al., 2001). Briefly, the tetrazolium salt MTT [3-(4,5-dimethyl-2-thiazolyl)-2,5-diphenyl-2H tetrazolium bromide] was added to the cultures at a final concentration of 1 mg/ml, and incubation of the culture was continued in the CO2 incubator for a further 30 min at 37° C. The assay was stopped by adding lysis buffer [20% SDS in 50% N,N-dimethyl formamide, pH 4.7]. The absorbance was measured specrophotometrically at 570 nm after an overnight incubation at room temperature. The absorbance of a well without cells was used as background and subtracted. Results obtained using the MTT assays were confirmed using the fluorescein-diacetate method for quantification of cell viability, as previously described (D'Mello et al., 1993). Data are presented as mean+/−standard deviation. Statistical analysis was performed using ANOVA and Student-Neuman-Keuls' test.

cdk2 = cdk2 (Homo sapiens, UniProt P24941); conditions: Lackey et al., 2000; cited from earlier work

Chain of c-src (P12931 whole entry, species assumed): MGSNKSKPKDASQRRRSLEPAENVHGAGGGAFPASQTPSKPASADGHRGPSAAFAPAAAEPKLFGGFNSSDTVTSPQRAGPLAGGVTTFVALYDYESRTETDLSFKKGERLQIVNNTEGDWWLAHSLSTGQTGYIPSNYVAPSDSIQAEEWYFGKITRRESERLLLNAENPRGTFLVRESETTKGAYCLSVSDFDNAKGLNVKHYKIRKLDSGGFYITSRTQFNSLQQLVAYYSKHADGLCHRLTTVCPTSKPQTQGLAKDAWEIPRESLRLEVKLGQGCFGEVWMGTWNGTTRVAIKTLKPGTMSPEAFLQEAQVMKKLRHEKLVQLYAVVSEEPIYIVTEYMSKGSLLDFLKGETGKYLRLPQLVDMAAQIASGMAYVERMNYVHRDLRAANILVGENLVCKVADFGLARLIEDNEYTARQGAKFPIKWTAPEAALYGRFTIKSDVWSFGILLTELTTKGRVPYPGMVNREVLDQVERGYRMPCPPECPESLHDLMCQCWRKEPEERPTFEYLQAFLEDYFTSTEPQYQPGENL

O=C1Nc2ccc(I)cc2C1=Cc1cc(Br)c(O)c(Br)c1 [GW5074, 5-Iodo-3-[(3,5-dibromo-4-hydroxyphenyl)methylene]-2-indolinone]
MPP+-induced cell death [1]: reduced MPP^+-induced cell death | effect on activity of c-src (c-src): no effect | activation of GSK3β after switch to LK (GSK3β): prevents the activation of GSK3 | phosphorylation of C-Raf at Ser259 (C-Raf): rapid increase in Ser259 phosphorylation | 3-NP-induced striatal degeneration (mice): completely prevented | neuroprotection against LK-induced apoptosis ([2]; 5 uM and 10 uM): Neuroprotection by GW5074 is also observed | protection against LK-induced apoptosis ([2]; LK + 1 uM GW5074, 24 hours): prevents LK-induced apoptosis | concentration of maximal protection against LK-induced apoptosis ([2]; viability 24 hours after switch to LK): 1 µM | effect on activity of cdk2 (cdk2): no effect
